“And” between values parts separate entries of the source, which are not always exact repeats. Equal entries are not always repeated.
Key:
[1] = cited from earlier work
[2] = in vivo; cited from earlier work
[3] = system: 2019 Novel Coronavirus, Isolate USA-WA1/2020 (SARS-CoV-2); test: TCID50 test of SARS-CoV-2 recovered from PCA-coated test substrates (plastic, cloth, mesh), titrated on Vero E6 cells; type: cell-based; conditions: for log difference: versus virus control on substrate; for TCID50 Log10/mL: single replicates
Experimental: The Test Article (TA) used for this study was Protocatechuic Acid (PCA). The TA was received as an off-white powder. The PCA solution was prepared to be 30% PCA w/v in Ethanol. The PCA was prepared in 5 g increments to pre-warmed 50-60 mL ethanol until dissolved for a total of 30 g PCA in the solution. Additional ethanol was then added volumetrically to be equivalent to 100 mL.
The Test Substrates (TS) were a Plastic-type material sourced from a clear plastic laboratory bottle (Corning 431731 Octagonal bottle, 150 mL), cloth (the top layer of a N95 mask [3M 8210]), and a Sponsor-provided wire mesh to serve as a substrate for the TA. All test substrates were cut to approximately 1″×1″ in size. The test substrates were submerged into the PCA solution and dried horizontally to allow for even coating. After the substrate was thoroughly dried, the test substrate was re-submerged into the PCA solution for an additional coating.
The Test Virus used for this study was 2019 Novel Coronavirus, Isolate USA-WA1/2020 (SARS-CoV-2). The virus was stored at approximately […] prior to use. The multiplicity of infection (MOI) was 0.01 TCID50/cell.
The Cell Culture used for the TCID50 test was African Green Monkey Kidney Cells (Vero E6 cells) that were maintained in Dulbecco's […] with 10% fetal calf serum (DMEM-2). All growth media contained heat-inactivated fetal calf serum and antibiotics.
The test design is shown below in Table 1.
The Test Substrate was coated with PCA as described above. The test substrates was treated with PCA twice and allowed to fully dry overnight. In general, the time from the first coat to the next day's virus exposure was approximately 24 hours.
The treated Test Substrate plus TA was placed into a sterile 6 well cell culture plate and approximately 100 μL total of a ≤1×10^6 TCID50/mL SARS-CoV-2 virus was such that 50 μL of virus was layered on each sides of the treated test substrates. This was the procedure used for the initial Day 1 experiment.
For the confirmatory test, in an attempt to increase the recorded titer of the controls, the treated Test Substrate plus TA was placed into a sterile 6 well cell culture plate and the same amount of virus was layered onto both sides of the test substrate. However, an addition 50 μL of DMEM was added to each side to reduce the inactivation of the virus due to desiccation. Additionally, a glass coverslip was also added to help mitigate against evaporation.
After application of the virus, the virus was contact with the Test substrates for approximately 10 minutes (Groups 1, 2, and 3, Control groups 7, 8, and 9), 60 minutes (Groups 4, 5, and 6, Control Groups 10, 11, and 12). Each substrate per time per test article was performed in duplicate.
A cell culture-only control was included to indicate that cells without any TA or virus remain healthy throughout the assay. Virus-only controls without substrate was added for each timepoint to verify that the assay was performing as expected.
After the incubation time, the treated substrate was washed with 1 mL of cell culture media (DMEM-2) for approximately 5-10 minutes within the 6 well cell culture plate and the glass cover slip removed if necessary. This was the equivalent to a 10-fold dilution. The plate was gently stirred via an orbital shaker to enhance the recovery of the virus.
For the TCID50, the cell culture media (DMEM-2) used to wash the Test Substrate was serially diluted 10 fold and transferred into respective wells of a 96-well plate which contained a monolayer of African Green Monkey Kidney Cells (Vero E6 cells) for titration. The TCID50 assay was performed non-GLP according to IITRI Standard Operating Procedures for the assay. The TCID50 titers was calculated using the method of Reed-Meunch.

SARS CoV-2 virus = test: Second laboratory coupon test: virus dried on PCA-coated coupons (stainless steel, K95 mask, plastic), recovered and titrated on Vero E6 cells by CPE; type: cell-based; design: : unit not given here; conditions: for Average Log10 TCID50 / Average TCID50: 3 replicates; for  / Log10 TCID50 / TCID50: single replicates; for TCID50: virus dried 45 minutes-1 h
Experimental: The second laboratory utilized test coupons made of solid stainless steel, plastic and K95 mask were coated in 30% w/v PCA in 70% ethanol. Each coupon was dipped in PCA, allowed to dry, dipped again and allowed to dry with the opposite side of the coupon facing up. Once dry, 200 ul virus was added to each coupon and allowed to dry (45 minutes-1 h drying time). Virus was recovered by adding 2 ml DMEM/F12 media and washing the coupon, without scraping so as not to dislodge PCA crystals. A yellow color change in the media was observed indicating acidification of the media upon addition to the PA-coated coupon. The recovered virus was added to empty 96 well plates and diluted 1:10 down the plate. This was then added to Vero E6 cells that had grown to ˜70% confluence. Cytotoxicity controls without virus and recovery controls without PCA were also done in the same manner. After addition to the cells, plates were read at day 4 for the presence of cytopathic effect (CPE) due to viral infection of cells. Note that cytotoxicity and CPE cannot be differentiated in this assay, thus any dead cells are marked as positive.
Cytotoxicity was seen up to 1:100 dilution for the K95, and 1:10 for the stainless steel and plastic coupons. […] The SS=stainless steel, K95=K95 mask and P=plastic. +PCA means coupons coated with PCA. No PCA (e.g. SS-1) indicates virus recovery controls with no PCA coating that had virus dried and recovered.

[4] = confirmatory run (Day 2), PCA on cloth, 10 min
[5] = confirmatory run (Day 2), PCA on cloth, 60 min
[6] = confirmatory run (Day 2), PCA on mesh, 10 min
[7] = confirmatory run (Day 2), PCA on mesh, 60 min
[8] = confirmatory run (Day 2), PCA on plastic, 10 min
[9] = confirmatory run (Day 2), PCA on plastic, 60 min
[10] = initial run (Day 1), PCA on cloth, 60 min incubation
[11] = initial run (Day 1), PCA on mesh, 60 min incubation
[12] = initial run (Day 1), PCA on plastic, 10 min incubation
[13] = initial run (Day 1), PCA on plastic, 60 min incubation
[14] = K95 mask coupon coated with PCA versus uncoated coupon
[15] = K95 mask coupon coated with PCA
[16] = plastic coupon coated with PCA versus uncoated coupon
[17] = stainless steel coupon coated with PCA versus uncoated coupon
[18] = stainless steel coupon coated with PCA

## O=C(O)c1ccc(O)c(O)c1 [PCA, Protocatechuic acid]
[1]
  solubility in water: approximately 10 mg/ml
[2]
  LD50: 800 mg/kg
[3]; [4]
  Log average: 4.25 TCID50 Log10/mL
  log difference: −1.13 log
[3]; [5]
  Log average: 2.75 TCID50 Log10/mL
  log difference: −2.38 log
[3]; [6]
  Log average: 4.63 TCID50 Log10/mL
  log difference: −1.13 log
[3]; [7]
  Log average: 4.38 TCID50 Log10/mL
  log difference: −0.88 log
[3]; [8]
  Log average: 4.38 TCID50 Log10/mL
  log difference: −1.13 log
[3]; [9]
  Log average: 3.63 TCID50 Log10/mL
  log difference: −1.50 log
[3]; confirmatory run (Day 2, extra DMEM and coverslip), PCA on cloth, 10 min
  TCID50 Log10/mL: 4.25 TCID50 Log10/mL
[3]; confirmatory run (Day 2, extra DMEM and coverslip), PCA on cloth, 60 min
  TCID50 Log10/mL: 2.00 TCID50 Log10/mL and 3.50 TCID50 Log10/mL
[3]; confirmatory run (Day 2, extra DMEM and coverslip), PCA on mesh, 10 min
  TCID50 Log10/mL: 4.75 TCID50 Log10/mL and 4.50 TCID50 Log10/mL
[3]; confirmatory run (Day 2, extra DMEM and coverslip), PCA on mesh, 60 min
  TCID50 Log10/mL: 4.50 TCID50 Log10/mL and 4.25 TCID50 Log10/mL
[3]; confirmatory run (Day 2, extra DMEM and coverslip), PCA on plastic, 10 min
  TCID50 Log10/mL: 4.25 TCID50 Log10/mL and 4.50 TCID50 Log10/mL
[3]; confirmatory run (Day 2, extra DMEM and coverslip), PCA on plastic, 60 min
  TCID50 Log10/mL: 3.50 TCID50 Log10/mL and 3.75 TCID50 Log10/mL
[3]; in 10 minutes, virus droplet on PCA coating, aqueous environment
  virucidal effect on the SARS CoV2 virus: virucidal effect
[3]; initial run (Day 1), PCA on cloth (N95 top layer), 10 min incubation
  TCID50 Log10/mL: 2.75 TCID50 Log10/mL
[3]; initial run (Day 1), PCA on cloth, 10 min
  log difference: −1.25 log
[3]; initial run (Day 1), PCA on cloth, 10 min incubation
  Log average: 2.75 TCID50 Log10/mL
[3]; initial run (Day 1), PCA on cloth, 60 min
  log difference: −1.00 log
[3]; [10]
  Log average: 2.75 TCID50 Log10/mL
  TCID50 Log10/mL: 2.50 TCID50 Log10/mL and 3.00 TCID50 Log10/mL
[3]; initial run (Day 1), PCA on mesh, 10 min
  log difference: −0.25 log
[3]; initial run (Day 1), PCA on mesh, 10 min incubation
  Log average: 3.38 TCID50 Log10/mL
[3]; initial run (Day 1), PCA on mesh, 60 min
  log difference: −2.00 log
[3]; [11]
  Log average: 1.50 TCID50 Log10/mL
  TCID50 Log10/mL: 1.00 TCID50 Log10/mL and 2.00 TCID50 Log10/mL
[3]; initial run (Day 1), PCA on plastic, 10 min
  log difference: −0.63 log
[3]; [12]
  Log average: 3.75 TCID50 Log10/mL
  TCID50 Log10/mL: 3.75 TCID50 Log10/mL
[3]; initial run (Day 1), PCA on plastic, 60 min
  log difference: −1.13 log
[3]; [13]
  Log average: 2.88 TCID50 Log10/mL
  TCID50 Log10/mL: 3.25 TCID50 Log10/mL and 2.50 TCID50 Log10/mL
[3]; initial run (Day 1), PCA on wire mesh, 10 min incubation
  TCID50 Log10/mL: 3.50 TCID50 Log10/mL and 3.25 TCID50 Log10/mL
SARS CoV-2 virus; [14]
  Log Reduction to Virus Controls: 2.45
  Percent Log Reduction: 99.65%
SARS CoV-2 virus; [15]
  Average Log10 TCID50: 2.10
  Average TCID50: 182.4589
  : 0.03162 and 0.05012 and 0.3162
  Log10 TCID50: 2.50 and 2.30 and 1.50
  TCID50: 316.2278 and 199.5262 and 31.62
SARS CoV-2 virus; [16]
  Log Reduction to Virus Controls: 3.94
  Percent Log Reduction: 99.99%
SARS CoV-2 virus; plastic coupon coated with PCA
  Average Log10 TCID50: 1.91
  Average TCID50: 88
  : 0.1995 and 0.07943 and 0.1136
  Log10 TCID50: 1.70 and 2.10 and 1.94
  TCID50: 50.12 and 125.8925 and 87.99
SARS CoV-2 virus; [17]
  Log Reduction to Virus Controls: 2.93
  Percent Log Reduction: 99.88%
SARS CoV-2 virus; [18]
  Average Log10 TCID50: 2.37
  Average TCID50: 298.9493
  : 0.01995 and 0.1259 and 0.03162
  Log10 TCID50: 2.70 and 1.90 and 2.50
  TCID50: 501.1872 and 79.43 and 316.2278
